The values below come from US20250230159A1, “FUSED HETEROCYCLIC COMPOUNDS AS MODULATORS OF RAS SIGNALLING” (Shenzhen Ionova Life Science Co., Ltd., priority 2022, published 2025).

One assay deals with pERK in Hela cells. Briefly: Phospho-ERK (p-ERK) assay in Hela cells. Type of assay: cell-based. The conditions noted are these: Homo sapiens, β-actin normalized. On the procedure: This Example illustrates that exemplary compounds of the present invention prevent KRas-mediated GTP nucleotide exchange mediated by SOS1 to inhibit KRas activity, thereby inhibiting the generation of the downstream effector pERK.
Hela cells (23,000/w) were seeded in a black clear flat bottom 96-well cell culture plate (Corning, #3904) and incubated at 37° C. overnight. At day 2, cells were dosed with compounds of Formula (I) with a 10 μM starting concentration and serially diluted 3× for a total of 9 concentrations. The cells were incubated for 1 hour with the compounds solubilized in DMSO at 37° C. Cells were immediately fixed by adding 100 μL of 8% formaldehyde to all wells in a fume hood and the plates were incubated for 1 hr at room temperature. The formaldehyde was discarded from the plates and washed 5 times and each time for 5 min with 200 μL of Triton Washing Solution (0.1% Triton in PBS) each time to permeabilize the cells. Cells were then blocked with 150 μL of Odyssey blocking buffer (LI-COR Biosciences #927-50010) at room temperature on a shaker. The blocking buffer was discarded and 50 μL of primary antibodies pERK (cell signaling Technology #4370; Rabbit, 1:500) and β-actin (AF5001; Mouse, 1:2000) diluted in Odyssey blocking buffer was added. The plates were incubated overnight at 4° C. on a shaker.
On day 3, the primary antibody solution was removed. Each plate was washed 5× times with 200 μL of 1×PBST (PBS+0.1% Tween 20) and incubated with 50 μL of secondary antibodies: Anti-Rabbit (LI-COR Biosciences #926-32211) and Anti-Mouse (LI-COR Biosciences #68070) at 1:1000 dilution in Odyssey blocking buffer at room temperature on a shaker for 1 hour (protected from light). The secondary antibody solution as removed and each plate was washed with PBST 5× times. Any liquid remaining was discarded and the plate was imaged using the Licor Odyssey machine according to the manufacturer's instruction, using a set focus length at 3.5 mm and both 800 nm and 700 nm filters. The 3-actin normalized scan values for each well were divided by the average of vehicle wells to get the % of p-ERK inhibition. The IC50 values were then calculated with the Graph pad Prism software. In general, p-ERK IC50 data are in line with the PPI IC50 data.

For assay [1], the target named is KRAS-G12C/SOS1 interaction (Homo sapiens (Human), UniProt Q07889). As to the kind of experiment: Protein-Protein Interaction (PPI) assay, SOS1-KRAS binding assay kit (HTRF). The method, then:
This Example illustrates that exemplary compounds of the present invention blockade the interaction of SOS1 to KRAS protein.
The ability of a compound of Formula (I) to block the interaction of SOS1 to KRAS was measured using a SOS1-KRAS binding assay kit (CAT #63ADK000CB16PEG, Cisbio). Utilizing HTRF (Homogeneous Time-resolved Fluorescence) technology, the assay enables simple and rapid characterization of compound and antibody blockers in a high throughput format. The interaction between Tag1-SOS1 and Tag2-KRAS-G12C is detected by using anti-Tag1-Terbium antibody (HTRF donor) and anti-Tag2-XL665 antibody (HTRF acceptor). When the donor and acceptor antibodies are brought into close proximity due to SOS1 and KRAS-G12C binding, excitation of the donor antibody triggers fluorescent resonance energy transfer (FRET) towards the acceptor antibody, which in turn emits specifically at 665 nm. This specific signal is directly proportional to the extent of KRAS-G12C/SOS1 interaction.
The assay was carried according to the manufacturer's instructions. Compounds at an initial concentration of 10 mM in DMSO were first serially diluted on a 384-well plate using assay buffer at a ratio of 1:3 for a total of 9 concentrations with each of a volume of 20 μL. Blank buffer was included as the negative control. The final compound solution was in the buffer solution with 1% DMSO. Then, in each well of a 384-well plate, a solution of 2 μL compound solution, 4 μL tagged SOS1 and KRAS (G12C) protein stocks, respectively, and 10 μM GTP was incubated for 15 min. 10 μL mixture of […] antibody and anti-Tag1-Terbium antibody was introduced to each individual well. After 2 hours incubation at room temperature, fluorescence readout was measured with a Pelkin Elmer multiple plate reader VICTOR Nivo.
Excitation was from over a range of 245-395 nm, and emission from the donor (emission 1) was detected at […] and emission from the acceptor (emission 2) was detected at (606.5-623.5) nm. The HTRF ratio was calculated using the formula: (emission 1 @665 nm/emission 2 @620 nm)×10000. Thus, compounds blocking KRAS-G12C/SOS1 interaction will cause a reduction in HTRF signal ratio. The IC50 values were then calculated with the Graph pad Prism software.
(TR-FRET usually uses a lanthanide donor and a delayed reading to cut background.)

Where two headings read alike, the source gives them in different places.

Chain of KRAS-G12C/SOS1 interaction (Q07889 whole entry, stated change not applied): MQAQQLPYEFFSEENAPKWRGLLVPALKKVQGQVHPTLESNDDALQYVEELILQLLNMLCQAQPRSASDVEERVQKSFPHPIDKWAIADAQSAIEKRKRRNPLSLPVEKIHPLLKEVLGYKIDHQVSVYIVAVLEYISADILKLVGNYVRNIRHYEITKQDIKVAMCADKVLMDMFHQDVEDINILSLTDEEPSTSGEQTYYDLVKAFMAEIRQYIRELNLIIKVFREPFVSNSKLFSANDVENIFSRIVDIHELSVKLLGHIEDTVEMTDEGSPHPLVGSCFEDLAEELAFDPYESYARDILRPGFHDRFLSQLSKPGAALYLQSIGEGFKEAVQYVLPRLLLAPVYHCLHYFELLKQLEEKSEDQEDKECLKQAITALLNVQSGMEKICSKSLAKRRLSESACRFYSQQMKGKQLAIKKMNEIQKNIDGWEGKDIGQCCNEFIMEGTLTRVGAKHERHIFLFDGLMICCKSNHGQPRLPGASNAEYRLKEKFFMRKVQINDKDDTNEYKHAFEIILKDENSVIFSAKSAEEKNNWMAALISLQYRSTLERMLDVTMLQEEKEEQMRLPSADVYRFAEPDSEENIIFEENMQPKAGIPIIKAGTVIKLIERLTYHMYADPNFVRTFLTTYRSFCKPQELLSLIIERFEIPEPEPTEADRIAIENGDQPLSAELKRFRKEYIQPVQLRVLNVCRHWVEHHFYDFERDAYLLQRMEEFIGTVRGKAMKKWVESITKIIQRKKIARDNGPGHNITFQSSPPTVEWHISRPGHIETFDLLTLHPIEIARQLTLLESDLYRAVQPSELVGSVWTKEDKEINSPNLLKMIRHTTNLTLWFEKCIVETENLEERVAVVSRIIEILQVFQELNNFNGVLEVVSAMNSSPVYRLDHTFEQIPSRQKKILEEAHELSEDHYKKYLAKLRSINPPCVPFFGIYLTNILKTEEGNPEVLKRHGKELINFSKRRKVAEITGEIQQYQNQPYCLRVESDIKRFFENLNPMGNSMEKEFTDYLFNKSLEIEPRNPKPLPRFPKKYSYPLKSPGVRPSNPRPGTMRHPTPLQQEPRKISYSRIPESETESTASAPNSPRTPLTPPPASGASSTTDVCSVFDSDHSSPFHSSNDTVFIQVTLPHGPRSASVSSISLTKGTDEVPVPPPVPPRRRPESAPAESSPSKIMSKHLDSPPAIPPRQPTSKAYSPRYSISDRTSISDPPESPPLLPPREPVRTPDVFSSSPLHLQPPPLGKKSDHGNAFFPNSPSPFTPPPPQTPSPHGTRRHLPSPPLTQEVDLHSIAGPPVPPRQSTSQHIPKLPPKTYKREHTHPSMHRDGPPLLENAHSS

Take `CCOC(=O)c1cc2c(N[C@H](C)c3cc(N)cc(C(F)(F)F)c3)nc(C)nc2n2ncnc12` [Example 1, Ethyl (R)-6-((1-(3-amino-5-(trifluoromethyl)phenyl)ethyl)amino)-8-methyl-[1,2,4]triazolo[1′,5′:1,6]pyrido[2,3-d]pyrimidine-4-carboxylate]: the IC50 (usually the concentration that inhibits the measured activity by half) with pERK in Hela cells (Table 2, 1 hour with compound) was above 100 nM; in assay [1] it was above 100 nM.
On to `Cc1nc(N[C@H](C)c2cc(N)cc(C(F)(F)F)c2)c2cc(C(=O)N3CCOCC3)c3ncnn3c2n1` [Example 2, (R)-(6-((1-(3-amino-5-(trifluoromethyl)phenyl)ethyl)amino)-8-methyl-[1,2,4]triazolo[1′,5′:1,6]pyrido[2,3-d]pyrimidin-4-yl)(morpholino)methanone], for which the IC50 is above 100 nM in the assay with pERK in Hela cells (Table 1, 1 hour with compound) and below 100 nM in assay [1] (read-out: PPI Assay IC50).
The like results for `Cc1nc(N[C@H](C)c2cc(N)cc(C(F)(F)F)c2)c2cc(C(=O)N3CCN(C)CC3)c3ncnn3c2n1` [Example 3] were, in that order, below 100 nM and below 100 nM.
The like results for `COCCN1CCN(C(=O)c2cc3c(N[C@H](C)c4cc(N)cc(C(F)(F)F)c4)nc(C)nc3n3ncnc23)CC1` [Example 4] were, in that order, above 100 nM and below 100 nM.
As to `Cc1nc(N[C@H](C)c2cc(N)cc(C(F)(F)F)c2)c2cc(C(=O)N3CCN(CCO)CC3)c3ncnn3c2n1` [Example 5], the IC50 in the assay with pERK in Hela cells (Table 1, 1 hour with compound) was above 100 nM; in assay [1] (read-out: PPI Assay IC50), below 100 nM.
The like results for `Cc1nc(N[C@H](C)c2cc(N)cc(C(F)(F)F)c2)c2cc(C(=O)N3CC4(COC4)C3)c3ncnn3c2n1` [Example 6] were, in that order, below 100 nM and below 100 nM.
The like results for `Cc1nc(N[C@H](C)c2cccc(C(F)F)c2F)c2cc(C(=O)N3CCOCC3)c3ncnn3c2n1` [Example 11] were, in that order, above 100 nM and below 100 nM.
The like results for `Cc1nc(N[C@H](C)c2cccc(C(F)F)c2F)c2cc(C(=O)N3[C@@H](C)COC[C@@H]3C)c3ncnn3c2n1` [Example 13] were, in that order, below 100 nM and below 100 nM.
As to `Cc1nc(N[C@H](C)c2cccc(C(F)F)c2F)c2cc(C(=O)N3CCSCC3)c3ncnn3c2n1` [Example 17], the IC50 in the assay with pERK in Hela cells (Table 1, 1 hour with compound) is above 100 nM; in assay [1] (read-out: PPI Assay IC50), below 100 nM.
The like results for `Cc1nc(N[C@H](C)c2cccc(C(F)F)c2F)c2cc(C(=O)N3CCS(=O)(=O)CC3)c3ncnn3c2n1` [Example 18] were, in that order, above 100 nM and below 100 nM.
The like results for `Cc1nc(N[C@H](C)c2cccc(C(F)F)c2F)c2cc(C(=O)N3CCN(C)CC3)c3ncnn3c2n1` [Example 19] were, in that order, above 100 nM and below 100 nM.
As for `CC(=O)N1CCN(C(=O)c2cc3c(N[C@H](C)c4cccc(C(F)F)c4F)nc(C)nc3n3ncnc23)CC1` [Example 20], the IC50 in the assay with pERK in Hela cells (Table 1, 1 hour with compound) was above 100 nM; in assay [1] (read-out: PPI Assay IC50), below 100 nM.
The like results for `Cc1nc(N[C@H](C)c2cccc(C(F)F)c2F)c2cc(C(=O)N3CCN(C(=O)N(C)C)CC3)c3ncnn3c2n1` [Example 21] were, in that order, above 100 nM and below 100 nM.
In the case of `Cc1nc(N[C@H](C)c2cccc(C(F)F)c2F)c2cc(C(=O)N3CCN(CCO)CC3)c3ncnn3c2n1` [Example 23], the IC50 with pERK in Hela cells (Table 1, 1 hour with compound) was above 100 nM; in assay [1] (read-out: PPI Assay IC50), below 100 nM.
The like results for `Cc1nc(N[C@H](C)c2cccc(C(F)F)c2F)c2cc(C(=O)N3CCN(C4COC4)CC3)c3ncnn3c2n1` [Example 24] were, in that order, above 100 nM and below 100 nM.
On to `Cc1nc(N[C@H](C)c2cccc(C(F)F)c2F)c2cc(C(=O)N3CC4(COC4)C3)c3ncnn3c2n1` [Example 27], for which the IC50 with pERK in Hela cells (Table 1, 1 hour with compound) was below 100 nM; in assay [1] (read-out: PPI Assay IC50) it was below 100 nM.
As for `Cc1nc(N[C@H](C)c2cccc(C(F)F)c2F)c2cc(C(=O)N3C[C@H]4COC[C@H]4C3)c3ncnn3c2n1` [Example 29], the IC50 is below 100 nM with pERK in Hela cells (Table 1, 1 hour with compound) and below 100 nM in assay [1] (read-out: PPI Assay IC50).
With `Cc1nc(N[C@H](C)c2cccc(C(F)F)c2F)c2cc(C(=O)N3CCCC34CCOC4)c3ncnn3c2n1` (some centres unmarked) [Example 31], the IC50 in the assay on pERK in Hela cells (Table 1, 1 hour with compound) was above 100 nM; in assay [1] (read-out: PPI Assay IC50), below 100 nM.
As for `Cc1nc(N[C@H](C)c2cccc(C(F)F)c2F)c2cc(C(=O)N3CCC4(COC4)C3)c3ncnn3c2n1` [Example 33], the IC50 with pERK in Hela cells (Table 1, 1 hour with compound) is above 100 nM; in assay [1] (read-out: PPI Assay IC50), below 100 nM.
The like results for `Cc1nc(N[C@H](C)c2cccc(C(F)F)c2F)c2cc(C(=O)N3CC4CC(C3)O4)c3ncnn3c2n1` [Example 35] were, in that order, above 100 nM and below 100 nM.
On to `Cc1nc(N[C@H](C)c2cccc(C(F)F)c2F)c2cc(C(=O)N3C4CCC3CN(C)C4)c3ncnn3c2n1` [Example 37], for which the IC50 in the assay on pERK in Hela cells (Table 1, 1 hour with compound) was above 100 nM; in assay [1] (read-out: PPI Assay IC50) it was below 100 nM.
The like results for `Cc1nc(N[C@H](C)c2cccc(C(F)(F)F)c2C)c2cc(C(=O)N3CC4(COC4)C3)c3ncnn3c2n1` [Example 38] were, in that order, above 100 nM and below 100 nM.
The like results for `Cc1nc(N[C@H](C)c2cccc(C(F)(F)F)c2F)c2cc(C(=O)N3CC4(COC4)C3)c3ncnn3c2n1` [Example 39] were, in that order, above 100 nM and below 100 nM.
Take `C[C@@H](Nc1ncnc2c1cc(C(=O)N1CC3(COC3)C1)c1ncnn12)c1cccc(C(F)F)c1F` [Example 42]: the IC50 was above 100 nM in the assay on pERK in Hela cells (Table 1, 1 hour with compound) and below 100 nM in assay [1] (read-out: PPI Assay IC50).
Turning to `CC(=O)N1CCC(C)(c2cc3c(N[C@H](C)c4cccc(C(F)F)c4F)ncnc3n3cnnc23)CC1` [Example 128], in assay [1] (read-out: PPI Assay IC50), the IC50 was below 100 nM.
On to `[2H]C([2H])([2H])OC1(c2cc3c(N[C@H](C)c4cccc(C(F)F)c4F)ncnc3n3cnnc23)CCN(C(C)=O)CC1` [Example 133, (R)-1-(4-(4-((1-(3-(difluoromethyl)-2-fluorophenyl)ethyl)amino)-[1,2,4]triazolo[4′,3′:1,6]pyrido[2,3-d]pyrimidin-6-yl)-4-(methoxy-d3)piperidin-1-yl)ethan-1-one], for which, in assay [1] (read-out: PPI Assay IC50), the IC50 is below 100 nM.
Same read-out and setting: in the case of `CC(=O)NC1(c2cc3c(N[C@H](C)c4cccc(C(F)F)c4F)ncnc3n3cnnc23)CCN(C(C)=O)CC1` [Example 134, (R)—N-(1-acetyl-4-(4-((1-(3-(difluoromethyl)-2-fluorophenyl)ethyl)amino)-[1,2,4]triazolo[4′,3′:1,6]pyrido[2,3-d]pyrimidin-6-yl)piperidin-4-yl)acetamide] it was below 100 nM; in that of `Cc1nc(N[C@H](C)c2cccc(C(F)F)c2F)c2cc(C3CCSCC3)c3nncn3c2n1` [Example 138], below 100 nM; in that of `CC(=O)N1CCC(c2cc3c(N[C@H](C)c4cccc(C(F)F)c4F)nc(C)nc3n3cnnc23)CC1(C)C` (some centres unmarked) [Example 139], below 100 nM.
In turn, `CC(=O)N1CCC(c2cc3c(N[C@H](C)c4cccc(C(F)F)c4F)nc(C)nc3n3c(C)nnc23)CC1` [Example 141] showed an IC50 in assay [1] above 100 nM.
As for `Cc1nc(N[C@H](C)c2cccc(C(F)F)c2F)c2cc(C3CCN(S(C)(=O)=O)CC3)c3nnnn3c2n1` [Example 143], the IC50 in assay [1] (read-out: PPI Assay IC50) is below 100 nM.
As for `COCC(=O)N1CCC(c2cc3c(N[C@H](C)c4cccc(C(F)F)c4F)nc(C)nc3n3nnnc23)CC1` [Example 144], in assay [1] (read-out: PPI Assay IC50), the IC50 is below 100 nM.
